# Data reported in ChEMBL document CHEMBL5724914, “Linking interpersonal differences in gut microbiota composition and drug biotransformation activity” (2024).
# Key:
# [1] = human gut metagenome, 24 h, 2 µM
# [2] = human gut metagenome, 24 h, 2 µM; remark: listed apart in the source
# [3] = The drug is tested on WLS-086 corresponding to human gut metagenome with ENA study accession number: PRJEB37062 and ENA sample accession number: ERS12561752 for biotransformation under anaerobic condition. The drug concentrations were measured over 9 timepoints collected between 0 and 24 hours of incubation by liquid-chromatography-coupled mass spectrometry (LC–MS); details: 2 µM
# [4] = human gut metagenome, 24 h, 2 µM; remark: listed apart in the source
# [5] = human gut metagenome, 24 h, 2 µM; remark: listed apart in the source
# [6] = The drug is tested on WLS-350 corresponding to human gut metagenome with ENA study accession number: PRJEB37062 and ENA sample accession number: ERS12561789 for biotransformation under anaerobic condition. The drug concentrations were measured over 9 timepoints collected between 0 and 24 hours of incubation by liquid-chromatography-coupled mass spectrometry (LC–MS); details: 2 µM
# [7] = The drug is tested on Z-024 corresponding to pig gut metagenome with ENA study accession number: PRJEB37062 and ENA sample accession number: ERS12561823 for biotransformation under anaerobic condition. The drug concentrations were measured over 9 timepoints collected between 0 and 24 hours of incubation by liquid-chromatography-coupled mass spectrometry (LC–MS); details: 2 µM
# [8] = The drug is tested on Z-009 corresponding to pig gut metagenome with ENA study accession number: PRJEB37062 and ENA sample accession number: ERS12561809 for biotransformation under anaerobic condition. The drug concentrations were measured over 9 timepoints collected between 0 and 24 hours of incubation by liquid-chromatography-coupled mass spectrometry (LC–MS); details: 2 µM
# [9] = The drug is tested on WLS-052 corresponding to human gut metagenome with ENA study accession number: PRJEB37062 and ENA sample accession number: ERS12561747 for biotransformation under anaerobic condition. The drug concentrations were measured over 9 timepoints collected between 0 and 24 hours of incubation by liquid-chromatography-coupled mass spectrometry (LC–MS); details: 2 µM
# [10] = human gut metagenome, 24 h, 2 µM; remark: listed apart in the source
# [11] = human gut metagenome, 24 h, 2 µM; remark: listed apart in the source
# [12] = The drug is tested on Z-010 corresponding to metagenome with ENA study accession number: PRJEB37062 and ENA sample accession number: ERS12561810 for biotransformation under anaerobic condition. The drug concentrations were measured over 9 timepoints collected between 0 and 24 hours of incubation by liquid-chromatography-coupled mass spectrometry (LC–MS); details: 2 µM
# [13] = The drug is tested on Z-017 corresponding to mouse gut metagenome with ENA study accession number: PRJEB37062 and ENA sample accession number: ERS12561816 for biotransformation under anaerobic condition. The drug concentrations were measured over 9 timepoints collected between 0 and 24 hours of incubation by liquid-chromatography-coupled mass spectrometry (LC–MS); details: 2 µM
# [14] = The drug is tested on Z-001 corresponding to mouse gut metagenome with ENA study accession number: PRJEB37062 and ENA sample accession number: ERS12561801 for biotransformation under anaerobic condition. The drug concentrations were measured over 9 timepoints collected between 0 and 24 hours of incubation by liquid-chromatography-coupled mass spectrometry (LC–MS); details: 2 µM
# [15] = The drug is tested on WLS-038 corresponding to human gut metagenome with ENA study accession number: PRJEB37062 and ENA sample accession number: ERS12561745 for biotransformation under anaerobic condition. The drug concentrations were measured over 9 timepoints collected between 0 and 24 hours of incubation by liquid-chromatography-coupled mass spectrometry (LC–MS); details: 2 µM
# [16] = The drug is tested on WLS-073 corresponding to human gut metagenome with ENA study accession number: PRJEB37062 and ENA sample accession number: ERS12561749 for biotransformation under anaerobic condition. The drug concentrations were measured over 9 timepoints collected between 0 and 24 hours of incubation by liquid-chromatography-coupled mass spectrometry (LC–MS); details: 2 µM
# [17] = human gut metagenome, 24 h, 2 µM; remark: listed apart in the source
# [18] = The drug is tested on WLS-220 corresponding to human gut metagenome with ENA study accession number: PRJEB37062 and ENA sample accession number: ERS12561769 for biotransformation under anaerobic condition. The drug concentrations were measured over 9 timepoints collected between 0 and 24 hours of incubation by liquid-chromatography-coupled mass spectrometry (LC–MS); details: 2 µM
# [19] = human gut metagenome, 24 h, 2 µM; remark: listed apart in the source
# [20] = human gut metagenome, 24 h, 2 µM; remark: listed apart in the source
# Further: call rule not given here.
SMILES,Bacterial Biotransformation [1],Bacterial Biotransformation [2],Bacterial Biotransformation [3],Bacterial Biotransformation [4],Bacterial Biotransformation [5],Bacterial Biotransformation [6],Bacterial Biotransformation [7],Bacterial Biotransformation [8],Bacterial Biotransformation [9],Bacterial Biotransformation [10],Bacterial Biotransformation [11],Bacterial Biotransformation [12],Bacterial Biotransformation [13],Bacterial Biotransformation [14],Bacterial Biotransformation [15],Bacterial Biotransformation [16],Bacterial Biotransformation [17],Bacterial Biotransformation [18],Bacterial Biotransformation [19],Bacterial Biotransformation [20]
O=P(O)(O)O.c1ccc(CN(CC2=NCCN2)c2ccccc2)cc1 [ANTAZOLINE PHOSPHATE],Compound NOT metabolized,Compound NOT metabolized,Compound metabolized,Compound NOT metabolized,Compound metabolized,Compound NOT metabolized,Compound metabolized,Compound NOT metabolized,Compound NOT metabolized,Compound metabolized,Compound NOT metabolized,Compound metabolized,Compound NOT metabolized,Compound NOT metabolized,Compound NOT metabolized,Compound NOT metabolized,Compound metabolized,Compound metabolized,Compound NOT metabolized,Compound NOT metabolized
CN1CCC(=C2c3ccccc3CCc3cccnc32)CC1.O=C(O)/C=C\C(=O)O.O=C(O)/C=C\C(=O)O [AZATADINE MALEATE],Compound NOT metabolized,Compound NOT metabolized,Compound NOT metabolized,Compound NOT metabolized,Compound NOT metabolized,Compound NOT metabolized,Compound NOT metabolized,Compound NOT metabolized,Compound NOT metabolized,Compound NOT metabolized,Compound NOT metabolized,Compound NOT metabolized,Compound NOT metabolized,Compound NOT metabolized,Compound NOT metabolized,Compound NOT metabolized,Compound NOT metabolized,Compound NOT metabolized,Compound NOT metabolized,Compound NOT metabolized

# Next, values leading:
Bacterial Biotransformation [1],Bacterial Biotransformation [2],Bacterial Biotransformation [3],Bacterial Biotransformation [4],Bacterial Biotransformation [5],Bacterial Biotransformation [6],Bacterial Biotransformation [7],Bacterial Biotransformation [8],Bacterial Biotransformation [9],Bacterial Biotransformation [10],Bacterial Biotransformation [11],Bacterial Biotransformation [12],Bacterial Biotransformation [13],Bacterial Biotransformation [14],Bacterial Biotransformation [15],Bacterial Biotransformation [16],Bacterial Biotransformation [17],Bacterial Biotransformation [18],Bacterial Biotransformation [19],Bacterial Biotransformation [20],SMILES
Compound NOT metabolized,Compound metabolized,Compound NOT metabolized,Compound NOT metabolized,Compound metabolized,Compound metabolized,Compound metabolized,Compound metabolized,Compound NOT metabolized,Compound metabolized,Compound NOT metabolized,Compound NOT metabolized,Compound NOT metabolized,Compound NOT metabolized,Compound NOT metabolized,Compound NOT metabolized,Compound NOT metabolized,Compound metabolized,Compound metabolized,Compound NOT metabolized,CC(C)(C#N)c1cc(Cn2cncn2)cc(C(C)(C)C#N)c1 [ANASTROZOLE]
Compound NOT metabolized,Compound metabolized,Compound metabolized,Compound metabolized,Compound metabolized,Compound metabolized,Compound metabolized,Compound metabolized,Compound metabolized,Compound metabolized,Compound metabolized,Compound metabolized,Compound metabolized,Compound metabolized,Compound metabolized,Compound NOT metabolized,Compound metabolized,Compound metabolized,Compound metabolized,Compound metabolized,CC(=O)OCC(=O)[C@@]1(O)[C@@H](C)C[C@H]2[C@@H]3CCC4=CC(=O)C=C[C@]4(C)[C@@]3(F)[C@@H](O)C[C@@]21C [BETAMETHASONE ACETATE]
Compound metabolized,Compound NOT metabolized,Compound metabolized,Compound NOT metabolized,Compound metabolized,Compound NOT metabolized,Compound metabolized,Compound NOT metabolized,Compound NOT metabolized,Compound metabolized,Compound NOT metabolized,Compound NOT metabolized,Compound NOT metabolized,Compound NOT metabolized,Compound NOT metabolized,Compound NOT metabolized,Compound NOT metabolized,Compound NOT metabolized,Compound NOT metabolized,Compound NOT metabolized,CC(C)NCC(O)COc1ccc(CCOCC2CC2)cc1 (stereo not given) [BETAXOLOL]
Compound metabolized,Compound metabolized,Compound metabolized,Compound metabolized,Compound metabolized,Compound metabolized,Compound metabolized,Compound metabolized,Compound metabolized,Compound metabolized,Compound metabolized,Compound metabolized,Compound NOT metabolized,Compound NOT metabolized,Compound metabolized,Compound metabolized,Compound metabolized,Compound metabolized,Compound metabolized,Compound NOT metabolized,CC(C)(Oc1ccc(CCNC(=O)c2ccc(Cl)cc2)cc1)C(=O)O [BEZAFIBRATE]
